Results published in ChEMBL document CHEMBL3885881, “DrugMatrix”.

Species: Rattus norvegicus
Assay: DrugMatrix - Regimen: Daily Repeat
Format: toxicity, organism-based, Sprague-Dawley
Set-up: regimen Daily Repeat, gender Male, age 6-8 weeks
Conditions: in vivo, po, route oral GAVAGE, vehicle 100 % WATER; for ABSOLUTE BASOPHIL / ABSOLUTE EOSINOPHIL / ABSOLUTE LYMPHOCYTE / ABSOLUTE MONOCYTE / ABSOLUTE SEGMENTED NEUTROPHIL / BASOPHIL / EOSINOPHIL / ERYTHROCYTE COUNT / HEMATOCRIT / HEMOGLOBIN / LEUKOCYTE COUNT / LYMPHOCYTE / MEAN CORPUSCULAR HEMOGLOBIN / MEAN CORPUSCULAR HEMOGLOBIN CONCENTRATION / MEAN CORPUSCULAR VOLUME / MONOCYTE / NEUTROPHIL / NUCLEATED RED BLOOD CELLS / PLATELET COUNT: tissue Blood; for ALANINE AMINOTRANSFERASE / ALBUMIN / ALKALINE PHOSPHATASE / ASPARTATE AMINOTRANSFERASE / BLOOD UREA NITROGEN / CARBON DIOXIDE / CHLORIDE / CHOLESTEROL / CREATINE PHOSPHOKINASE / CREATININE / GLUCOSE / LACTATE DEHYDROGENASE / LIPASE / PHOSPHORUS / POTASSIUM / SODIUM / TOTAL BILIRUBIN / TOTAL PROTEIN / URIC ACID: tissue Plasma
[1] = 0 mg/kg, 72 h, dose level Control, time 3 day
[2] = 0 mg/kg, 120 h, dose level Control, time 5 day
[3] = 3 mg/kg, 72 h, dose level Low, time 3 day

`CN(C)CC[C@@H](c1ccc(Cl)cc1)c1ccccn1` [DEXCHLORPHENIRAMINE] was tested, and the “ABSOLUTE BASOPHIL” value [1] was 0 CELLS/uL, the “ABSOLUTE EOSINOPHIL” value [1] was 58.83 CELLS/uL and the “ABSOLUTE LYMPHOCYTE” value [1] was 11823.5 CELLS/uL. The “ABSOLUTE MONOCYTE” value [1] was 169 CELLS/uL, the “ABSOLUTE SEGMENTED NEUTROPHIL” value [1] was 815.33 CELLS/uL and the BASOPHIL [1] was 0%. For the same compound, the EOSINOPHIL [1] was 0.5%, the “ERYTHROCYTE COUNT” value [1] was 5.52 x10E6/uL and the HEMATOCRIT [1] was 35.77%. For the same compound, the HEMOGLOBIN [1] was 14.28 G/DL, the “LEUKOCYTE COUNT” value [1] was 12.87 x10E3/uL and the LYMPHOCYTE [1] was 91.67%. The “MEAN CORPUSCULAR HEMOGLOBIN” value [1] was 25.92 pg, the “MEAN CORPUSCULAR HEMOGLOBIN CONCENTRATION” value [1] was 39.95 G/DL and the “MEAN CORPUSCULAR VOLUME” value [1] was 64.85 fL. The MONOCYTE [1] was 1.33%, the NEUTROPHIL [1] was 6.5% and the “NUCLEATED RED BLOOD CELLS” value [1] was 0 /100WBC. For the same compound, the “PLATELET COUNT” value [1] was 1246.17 x10E3/uL, the “ALANINE AMINOTRANSFERASE” value [1] was 66 u/L and the ALBUMIN [1] was 4.25 G/DL. For the same compound, the “ALKALINE PHOSPHATASE” value [1] was 416 u/L, the “ASPARTATE AMINOTRANSFERASE” value [1] was 106.17 u/L and the “BLOOD UREA NITROGEN” value [1] was 12.67 mg/dL. For the same compound, the “CARBON DIOXIDE” value [1] was 31.83 mmol/L, the CHLORIDE [1] was 102.5 MEQ/L and the CHOLESTEROL [1] was 69 mg/dL. The “CREATINE PHOSPHOKINASE” value [1] was 601.83 u/L, the CREATININE [1] was 0.18 mg/dL and the GLUCOSE [1] was 154.5 mg/dL. The “LACTATE DEHYDROGENASE” value [1] was 301.83 u/L, the LIPASE [1] was 11.17 u/L and the PHOSPHORUS [1] was 12.08 mg/dL. For the same compound, the POTASSIUM [1] was 6.12 MEQ/L, the SODIUM [1] was 145.2 MEQ/L and the “TOTAL BILIRUBIN” value [1] was 0.17 mg/dL. The “TOTAL PROTEIN” value [1] was 6.1 G/DL, the “URIC ACID” value [1] was 1.57 mg/dL and the “ABSOLUTE BASOPHIL” value [2] was 0 CELLS/uL. The “ABSOLUTE EOSINOPHIL” value [2] was 19.33 CELLS/uL, the “ABSOLUTE LYMPHOCYTE” value [2] was 12577.83 CELLS/uL and the “ABSOLUTE MONOCYTE” value [2] was 106.33 CELLS/uL. For the same compound, the “ABSOLUTE SEGMENTED NEUTROPHIL” value [2] was 896.5 CELLS/uL, the BASOPHIL [2] was 0% and the EOSINOPHIL [2] was 0.17%. For the same compound, the “ERYTHROCYTE COUNT” value [2] was 5.84 x10E6/uL, the HEMATOCRIT [2] was 36.88% and the HEMOGLOBIN [2] was 14.48 G/DL. The “LEUKOCYTE COUNT” value [2] was 13.6 x10E3/uL, the LYMPHOCYTE [2] was 92.17% and the “MEAN CORPUSCULAR HEMOGLOBIN” value [2] was 24.85 pg. The “MEAN CORPUSCULAR HEMOGLOBIN CONCENTRATION” value [2] was 39.3 G/DL, the “MEAN CORPUSCULAR VOLUME” value [2] was 63.23 fL and the MONOCYTE [2] was 0.83%. For the same compound, the NEUTROPHIL [2] was 6.83%, the “NUCLEATED RED BLOOD CELLS” value [2] was 0 /100WBC and the “PLATELET COUNT” value [2] was 1223.5 x10E3/uL. The “ALANINE AMINOTRANSFERASE” value [2] was 55.33 u/L, the ALBUMIN [2] was 4.08 G/DL and the “ALKALINE PHOSPHATASE” value [2] was 355.5 u/L. For the same compound, the “ASPARTATE AMINOTRANSFERASE” value [2] was 87.67 u/L, the “BLOOD UREA NITROGEN” value [2] was 15.33 mg/dL and the “CARBON DIOXIDE” value [2] was 33.83 mmol/L. For the same compound, the CHLORIDE [2] was 99.67 MEQ/L, the CHOLESTEROL [2] was 72.17 mg/dL and the “CREATINE PHOSPHOKINASE” value [2] was 268.33 u/L. The CREATININE [2] was 0.15 mg/dL, the GLUCOSE [2] was 152.5 mg/dL and the “LACTATE DEHYDROGENASE” value [2] was 212.67 u/L. For the same compound, the LIPASE [2] was 10.83 u/L, the PHOSPHORUS [2] was 11.65 mg/dL and the POTASSIUM [2] was 6.73 MEQ/L. For the same compound, the SODIUM [2] was 142.43 MEQ/L, the “TOTAL BILIRUBIN” value [2] was 0.23 mg/dL and the “TOTAL PROTEIN” value [2] was 6.07 G/DL. The “URIC ACID” value [2] was 1.7 mg/dL, the “ABSOLUTE BASOPHIL” value [3] was 0 CELLS/uL and the “ABSOLUTE EOSINOPHIL” value [3] was 76 CELLS/uL. For the same compound, the “ABSOLUTE LYMPHOCYTE” value [3] was 10621.67 CELLS/uL, the “ABSOLUTE MONOCYTE” value [3] was 75 CELLS/uL and the “ABSOLUTE SEGMENTED NEUTROPHIL” value [3] was 960.67 CELLS/uL. For the same compound, the BASOPHIL [3] was 0%, the EOSINOPHIL [3] was 0.67% and the “ERYTHROCYTE COUNT” value [3] was 5.43 x10E6/uL. The HEMATOCRIT [3] was 35.8%, the HEMOGLOBIN [3] was 14.27 G/DL and the “LEUKOCYTE COUNT” value [3] was 11.73 x10E3/uL. The LYMPHOCYTE [3] was 90.33%, the “MEAN CORPUSCULAR HEMOGLOBIN” value [3] was 26.27 pg and the “MEAN CORPUSCULAR HEMOGLOBIN CONCENTRATION” value [3] was 39.83 G/DL. The “MEAN CORPUSCULAR VOLUME” value [3] was 65.9 fL, the MONOCYTE [3] was 0.67% and the NEUTROPHIL [3] was 8.33%. For the same compound, the “NUCLEATED RED BLOOD CELLS” value [3] was 0 /100WBC, the “PLATELET COUNT” value [3] was 1343.33 x10E3/uL and the “ALANINE AMINOTRANSFERASE” value [3] was 45.67 u/L. The ALBUMIN [3] was 4.17 G/DL, the “ALKALINE PHOSPHATASE” value [3] was 363.67 u/L and the “ASPARTATE AMINOTRANSFERASE” value [3] was 81 u/L. For the same compound, the “BLOOD UREA NITROGEN” value [3] was 12.67 mg/dL, the “CARBON DIOXIDE” value [3] was 31.67 mmol/L and the CHLORIDE [3] was 102.33 MEQ/L. For the same compound, the CHOLESTEROL [3] was 64 mg/dL, the “CREATINE PHOSPHOKINASE” value [3] was 265.33 u/L and the CREATININE [3] was 0.26 mg/dL. For the same compound, the GLUCOSE [3] was 152.33 mg/dL, the “LACTATE DEHYDROGENASE” value [3] was 198 u/L and the LIPASE [3] was 13.33 u/L. For the same compound, the PHOSPHORUS [3] was 13.23 mg/dL, the POTASSIUM [3] was 6.5 MEQ/L and the SODIUM [3] was 145.03 MEQ/L. For the same compound, the “TOTAL BILIRUBIN” value [3] was 0.13 mg/dL, the “TOTAL PROTEIN” value [3] was 5.87 G/DL and the “URIC ACID” value [3] was 1.57 mg/dL.
